Ten molecules from patent US20210395256A1, “TYROSINE KINASE INHIBITORS, COMPOSITIONS AND METHODS THERE OF” (Betta Pharmaceuticals Co., Ltd., priority 2018, published 2021) can be followed below.

One series deals with TrkA kinase (Homo sapiens, UniProt P04629). Nature of the series: TrkA kinase assay (mobility shift assay). The settings on record: read-out: Trk A Kinase IC50. In kind it is biochemical. In outline:
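Caliper mobility-shift readout of FAM-labelled peptide conversion by TrkA in 50 mM HEPES pH 7.5, 0.0015% Brij-35, with ATP; enzyme preincubated 10 min with compound (10-point dilution), reaction at 28 °C, EDTA stop. Inhibition relative to DMSO and no-enzyme controls; IC50 by four-parameter fit.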

In a further series the target is T1, Ba/F3-TPM3-NTRK1 (Homo sapiens, UniProt P04629).
T1 construct: expressed in transfected cells; host or cells: Ba/F3; the other entry of the earlier key: TPM3 (P06753, Tropomyosin alpha-3 chain)
Nature of the series: Ba/F3-TPM3-NTRK1 cells proliferation assay. In kind it is cell-based. The settings on record: 72 h, CellTiter Glo. Here is the method:
(§1) Example 202 Ba/F3-TPM3-NTRK1 and Ba/F3-ETV6-NTRK3 cells proliferation assay
(§2) Cell line: Ba/F3 cells with TPM3-NTRK1 or ETV6-NTRK3 fusion mutation gene stably overexpressed named Ba/F3-TPM3-NTRK1 and Ba/F3-ETV6-NTRK3.
(§3) RPMI 1640 and 10% FBS and 1% PS and 2 ug/mL puromycin.
(§4) b) Collect cell to a 15 mL centrifuged tube, centrifuge at 1000 rpm for 5 min. Discard the supernatant, count, and make the cell density at 1.49×10^4 cells/mL, then place it in a 37° C., 5% CO2 incubator.
(§5) a) The test compound (20 mM stock solution) was diluted to 60 μM with 100% DMSO as starting concentration then 3-fold serial diluted with “9+0” concentrations. in a 96-well dilution plate (Thermo, Cat. No. 249944);
(§6) b) The above compound solution was diluted 1:20 times with culture medium to prepare a 10 fold working solution;
(§7) a) Take cells in log phase growth, centrifuge at 1000 rpm for 5 min, then resuspend the cells with culture medium, then count cells;
(§8) b) Cells were seeded to 96-well cell culture plate with density at 2000 cells/well;
(§9) a) Compounds prepared at step 2 were added to cell plate with 15 μL per well, the final concentrations were 300, 100, 33.33, 11.11, 3.70, 1.23, 0.41, 0.14, 0.05 and 0 nM, and the final concentration of DMSO was 0.5%. The blank control well was a culture medium (0.5% DMSO);
(§10) c) The cells were incubated for an additional 72 h in the incubator.
(§11) a) Remove the 96-well cell culture plate and add 50 μl of CTG reagent (CellTiter Glo kit, promega, Cat #G7573).
(§12) b) Plate was shaked for 2 min and then let it cool for 30 min at room temperature.
(§13) c) The Luminescence signal value was read using a PerkinElmer reader.
(§14) Experimental Data Analysis
(§15) Data were analyzed using GraphPad Prism 6.0 software to obtain a fitted curve of compound activity.
(§16) Fit the Compound IC50 from non-linear regression equation:
(§17) Y=Bottom+(Top-Bottom)/(1+10^((Log IC50-X)×HillSlope));
(§18) X: The log of the concentration of the compound; Y: Luminescence value.
(Cellular ATP, detected with luciferase, serves as a proxy for viable cell number.)

In another series the target is NTRK1-G595R (Homo sapiens, UniProt P04629, G595R). Nature of the series: NTRK1-G595R cell proliferation assay (Table 13). In kind it is cell-based.
Series [1] in a line: Liver microsomes metabolic stability assay, human. In kind it is in vitro ADME. The settings on record: human liver microsomes 0.5 mg/mL, 37° C.; for half-life at 2 μM: read-out: t1/2 Human. In outline: (§19)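 Pooled human, male rat or male mouse liver microsomes (0.5 mg/mL final) incubated at 37° C with 2 μM compound, with or without 1 mM NADPH. Samples at 0-60 min quenched in cold acetonitrile and analyzed by LC-MS/MS in duplicate. t1/2 derived from ln(% remaining) vs time slope, converted to CLint (μL/min/mg).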

Series [2] is described as follows: Liver microsomes metabolic stability assay, rat. The settings on record: male, rat liver microsomes 0.5 mg/mL, 37° C.; for half-life at 2 μM: read-out: t1/2 Rat. In kind it is in vitro ADME. In outline:
as §19

Series [3] can be described thus: Liver microsomes metabolic stability assay, mouse. In kind it is in vitro ADME. To be noted: male, mouse liver microsomes 0.5 mg/mL, 37° C.; for half-life at 2 μM: read-out: t1/2 Mouse. In outline: as §19
(In general: Liver microsomes are vesicles of endoplasmic reticulum, rich in cytochrome P450 enzymes.)

The target in a further series is T2, Ba/F3-ETV6-NTRK3 (Homo sapiens, UniProt Q16288).
T2 construct: Ba/F3 cells with TPM3-NTRK1 or ETV6-NTRK3 fusion mutation gene stably overexpressed named Ba/F3-TPM3-NTRK1 and Ba/F3-ETV6-NTRK3; fused on or other part: P41212 (Transcription factor ETV6)
Nature of the series: Ba/F3-ETV6-NTRK3 cells proliferation assay. In kind it is cell-based. To be noted: 72 h, CellTiter Glo. The procedure: as §1, §2, §3, §4, §5, §6, §7, §8, §9, §10, §11, §12, §13, §14, §15, §16, §17, §18

Like-named read-outs stand apart in the source and are kept apart here.

T2 sequence (Q16288 whole entry, the tested form may be a part): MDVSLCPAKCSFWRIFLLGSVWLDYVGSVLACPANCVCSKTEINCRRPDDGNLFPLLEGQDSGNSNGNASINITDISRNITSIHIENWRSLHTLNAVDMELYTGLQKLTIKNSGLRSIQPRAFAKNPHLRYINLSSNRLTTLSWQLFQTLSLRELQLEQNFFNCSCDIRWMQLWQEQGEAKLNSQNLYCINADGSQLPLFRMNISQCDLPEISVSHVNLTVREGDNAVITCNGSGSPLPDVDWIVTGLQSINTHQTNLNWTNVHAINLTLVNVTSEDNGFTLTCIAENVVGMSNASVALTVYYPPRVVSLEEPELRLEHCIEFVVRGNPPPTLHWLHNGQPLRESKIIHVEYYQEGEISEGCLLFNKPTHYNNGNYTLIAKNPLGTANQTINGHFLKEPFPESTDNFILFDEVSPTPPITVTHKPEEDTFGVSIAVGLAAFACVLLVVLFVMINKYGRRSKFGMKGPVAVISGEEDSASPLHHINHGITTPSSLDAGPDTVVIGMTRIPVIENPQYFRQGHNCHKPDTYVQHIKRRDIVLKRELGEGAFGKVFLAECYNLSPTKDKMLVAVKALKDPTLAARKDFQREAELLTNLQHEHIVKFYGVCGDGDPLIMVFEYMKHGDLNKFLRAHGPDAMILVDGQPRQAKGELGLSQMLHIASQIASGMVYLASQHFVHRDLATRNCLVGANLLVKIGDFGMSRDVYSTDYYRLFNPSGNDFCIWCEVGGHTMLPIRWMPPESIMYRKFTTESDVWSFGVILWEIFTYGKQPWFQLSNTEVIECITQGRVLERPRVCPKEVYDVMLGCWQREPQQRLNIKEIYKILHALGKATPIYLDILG
T1 sequence (P04629 510-796 limits assumed): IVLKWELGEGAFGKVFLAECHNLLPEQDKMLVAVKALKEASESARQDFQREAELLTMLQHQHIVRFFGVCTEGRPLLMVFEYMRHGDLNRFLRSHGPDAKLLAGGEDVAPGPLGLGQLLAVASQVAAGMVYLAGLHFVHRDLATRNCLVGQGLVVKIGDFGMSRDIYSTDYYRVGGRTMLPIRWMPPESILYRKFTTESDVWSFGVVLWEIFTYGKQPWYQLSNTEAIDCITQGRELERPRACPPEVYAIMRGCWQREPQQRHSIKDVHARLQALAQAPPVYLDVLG
Chain of NTRK1-G595R (P04629 33-796 G595R): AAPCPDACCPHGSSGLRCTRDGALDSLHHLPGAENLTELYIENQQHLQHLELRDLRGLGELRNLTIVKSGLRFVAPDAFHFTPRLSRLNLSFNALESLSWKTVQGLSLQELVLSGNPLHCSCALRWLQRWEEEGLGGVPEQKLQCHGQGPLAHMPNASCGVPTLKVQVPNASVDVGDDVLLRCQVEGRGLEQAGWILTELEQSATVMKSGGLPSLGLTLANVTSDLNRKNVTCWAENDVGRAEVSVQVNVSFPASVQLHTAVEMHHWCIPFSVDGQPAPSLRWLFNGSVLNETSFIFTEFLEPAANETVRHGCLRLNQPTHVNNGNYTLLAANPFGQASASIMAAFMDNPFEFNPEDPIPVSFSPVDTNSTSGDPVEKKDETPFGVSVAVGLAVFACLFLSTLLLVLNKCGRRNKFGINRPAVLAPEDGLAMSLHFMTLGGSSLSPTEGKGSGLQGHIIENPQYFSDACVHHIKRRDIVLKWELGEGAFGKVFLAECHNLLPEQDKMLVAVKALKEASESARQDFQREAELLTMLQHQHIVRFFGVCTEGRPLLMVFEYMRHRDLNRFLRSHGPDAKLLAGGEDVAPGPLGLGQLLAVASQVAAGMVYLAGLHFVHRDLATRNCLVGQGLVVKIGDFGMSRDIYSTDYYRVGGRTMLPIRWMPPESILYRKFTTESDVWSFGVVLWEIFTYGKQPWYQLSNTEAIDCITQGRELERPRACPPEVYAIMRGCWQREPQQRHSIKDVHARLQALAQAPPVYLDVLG
Chain of TrkA kinase (P04629 33-796): as the sequence (P04629 33-796 G595R) above, with R563G counted along it

What is called IC50 is the concentration that inhibits the measured activity by half. As a reminder, the microsomal CLint is the capacity of the preparation to metabolise the compound, expressed as a volume cleared per time. A lower microsomal CLint goes with slow turnover. On to `COCCOc1cc2nc(-c3cnn4ccc(N5CCC[C@@H]5c5cc(F)ccc5F)nc34)[nH]c2cc1OCCOC` [Compound 101, (R)-3-(5,6-bis(2-methoxyethoxy)-1H-benzo[d]imidazol-2-yl)-5-(2-(2,5-difluorophenyl)pyrrolidin-1-yl)pyrazolo[1,5-a]pyrimidine], for which the IC50 at TrkA kinase (numeric values) was found to be 0.4 nM; against Ba/F3-TPM3-NTRK1, 0.28 nM; on NTRK1-G595R, 165 nM. Further, the values for the microsomal CLint at 2 μM in series [1], in series [2] and in series [3] were 49.4 µL/min/mg, 105 µL/min/mg and 103 µL/min/mg, respectively. In addition, the half-life at 2 μM in series [1] is 28.1 min; in series [2], 13.2 min; in series [3] it was 13.5 min.
For `N#Cc1cc2[nH]c(-c3cnn4ccc(N5CCC[C@@H]5c5cc(F)ccc5F)nc34)nc2cc1F` [Compound 123, (R)-2-(5-(2-(2,5-difluorophenyl)pyrrolidin-1-yl)pyrazolo[1,5-a]pyrimidin-3-yl)-5-fluoro-1H-benzo[d]imidazole-6-carbonitrile], the values for the 50% inhibitory concentration (IC50) at TrkA kinase (class symbols), on Ba/F3-TPM3-NTRK1 and against NTRK1-G595R were ≤ 10 nM, 1.9 nM and 117 nM, respectively. Moreover, the intrinsic clearance (microsomal CLint) at 2 μM came out at 94.1 µL/min/mg in series [1], 60.8 µL/min/mg in series [2] and 39 µL/min/mg in series [3]. The half-life at 2 μM in series [1] came out at 14.7 min; in series [2], 22.8 min; in series [3] it was 35.5 min.
For the molecule `COc1cc2nc(-c3cnn4ccc(N5CCC[C@@H]5c5cc(F)ccc5F)nc34)[nH]c2cc1C#N` [Compound 125, (R)-2-(5-(2-(2,5-difluorophenyl)pyrrolidin-1-yl)pyrazolo[1,5-a]pyrimidin-3-yl)-5-methoxy-1H-benzo[d]imidazole-6-carbonitrile], the IC50 at TrkA kinase (numeric values) was 1.1 nM; against Ba/F3-TPM3-NTRK1, 1.38 nM; against Ba/F3-ETV6-NTRK3, 2.21 nM; against NTRK1-G595R, 46.6 nM. The intrinsic clearance (microsomal CLint) at 2 μM is 17.2 µL/min/mg in series [1], 15 µL/min/mg in series [2] and 16.4 µL/min/mg in series [3]. Further, the half-life at 2 μM in series [1] is 80.6 min; in series [2], 92.4 min; in series [3], 84.5 min.
As to `CSc1cc2nc(-c3cnn4ccc(N5CCC[C@@H]5c5cc(F)ccc5F)nc34)[nH]c2cc1C#N` [Compound 126, (R)-2-(5-(2-(2,5-difluorophenyl)pyrrolidin-1-yl)pyrazolo[1,5-a]pyrimidin-3-yl)-5-(methylthio)-1H-benzo[d]imidazole-6-carbonitrile], the IC50 is ≤ 10 nM at TrkA kinase (class symbols), 1.04 nM against Ba/F3-TPM3-NTRK1 and 106 nM against NTRK1-G595R. The intrinsic metabolic clearance (microsomal CLint) at 2 μM in series [1] is 42.2 µL/min/mg; in series [2], 21 µL/min/mg; in series [3], 33.4 µL/min/mg. Moreover, the half-life at 2 μM in series [1] is 32.8 min; in series [2], 66 min; in series [3], 41.5 min.
Take `N#Cc1cc2nc(-c3cnn4ccc(N5CCC[C@@H]5c5cc(F)ccc5F)nc34)[nH]c2cc1C#N` [Compound 148, (R)-2-(5-(2-(2,5-difluorophenyl)pyrrolidin-1-yl)pyrazolo[1,5-a]pyrimidin-3-yl)-1H-benzo[d]imidazole-5,6-dicarbonitrile]: the IC50 came to 1.5 nM at TrkA kinase (numeric values), 2.19 nM on Ba/F3-TPM3-NTRK1, 1.56 nM against Ba/F3-ETV6-NTRK3 and 81.8 nM against NTRK1-G595R. Also, the figures for the intrinsic metabolic clearance (microsomal CLint) at 2 μM in series [1], in series [2] and in series [3] were 1.2 µL/min/mg, 3.6 µL/min/mg and 14 µL/min/mg, respectively. In addition, the results for the half-life at 2 μM in series [1], in series [2] and in series [3] were 1160 min, 385 min and 99 min, respectively.
With `COC(=O)c1cc2nc(-c3cnn4ccc(N5CCC[C@@H]5c5cc(F)ccc5F)nc34)[nH]c2cc1OC` [Compound 155, methyl (R)-2-(5-(2-(2,5-difluorophenyl)pyrrolidin-1-yl)pyrazolo[1,5-a]pyrimidin-3-yl)-6-methoxy-1H-benzo[d]imidazole-5-carboxylate], the 50% inhibitory concentration (IC50) on TrkA kinase (numeric values) turned out to be 0.6 nM; on Ba/F3-TPM3-NTRK1, 1.2 nM; against Ba/F3-ETV6-NTRK3 it was 0.53 nM; at NTRK1-G595R, 18.2 nM.
In the case of `N#Cc1cc2nc(-c3cnn4ccc(N5CCC[C@@H]5c5cc(F)ccc5F)nc34)[nH]c2cc1OC(F)F` [Compound 156, (R)-6-(difluoromethoxy)-2-(5-(2-(2,5-difluorophenyl)pyrrolidin-1-yl)pyrazolo[1,5-a]pyrimidin-3-yl)-1H-benzo[d]imidazole-5-carbonitrile], the IC50 was 4.8 nM at TrkA kinase (numeric values), 3.92 nM on Ba/F3-TPM3-NTRK1, 5.65 nM against Ba/F3-ETV6-NTRK3 and 183 nM at NTRK1-G595R.
With `CNC(=O)c1cc2nc(-c3cnn4ccc(N5CCC[C@@H]5c5cc(F)ccc5F)nc34)[nH]c2cc1OC` [Compound 160, (R)-2-(5-(2-(2,5-difluorophenyl)pyrrolidin-1-yl)pyrazolo[1,5-a]pyrimidin-3-yl)-6-methoxy-N-methyl-1H-benzo[d]imidazole-5-carboxamide], the IC50 stood at 0.43 nM on TrkA kinase (numeric values), 1.06 nM against Ba/F3-TPM3-NTRK1, 2.05 nM against Ba/F3-ETV6-NTRK3 and 15.6 nM against NTRK1-G595R. In addition, the microsomal CLint at 2 μM was found to be 56.2 µL/min/mg in series [1], 92.4 µL/min/mg in series [2] and 105 µL/min/mg in series [3]. Moreover, the results for the half-life at 2 μM in series [1], in series [2] and in series [3] were 24.7 min, 15 min and 13.2 min, respectively.
Consider `COCCOc1cc2[nH]c(-c3cnn4ccc(N5CCC[C@@H]5c5cc(F)ccc5F)nc34)nc2cc1C#N` [Compound 169, (R)-2-(5-(2-(2,5-difluorophenyl)pyrrolidin-1-yl)pyrazolo[1,5-a]pyrimidin-3-yl)-6-(2-methoxyethoxy)-1H-benzo[d]imidazole-5-carbonitrile], for which the figures for the IC50 at TrkA kinase (class symbols), on Ba/F3-TPM3-NTRK1 and at NTRK1-G595R were ≤ 10 nM, 2.91 nM and 103 nM, respectively. In addition, the values for the microsomal CLint at 2 μM in series [1], in series [2] and in series [3] were 55.8 µL/min/mg, 78.4 µL/min/mg and 102 µL/min/mg, respectively. Also, the figures for the half-life at 2 μM in series [1], in series [2] and in series [3] were 24.8 min, 17.7 min and 13.5 min, respectively.
Regarding `CS(=O)(=O)c1cc2nc(-c3cnn4ccc(N5CCC[C@@H]5c5cc(F)ccc5F)nc34)[nH]c2cc1C(N)=O` [Compound 173, (R)-2-(5-(2-(2,5-difluorophenyl)pyrrolidin-1-yl)pyrazolo[1,5-a]pyrimidin-3-yl)-5-(methylsulfonyl)-1H-benzo[d]imidazole-6-carboxamide], the half-maximal inhibitory concentration (IC50) at TrkA kinase (class symbols) is ≤ 10 nM; against Ba/F3-TPM3-NTRK1, 2.19 nM; against NTRK1-G595R, 89.8 nM. The microsomal CLint at 2 μM in series [1] is 46.6 µL/min/mg; in series [2] it was 45.2 µL/min/mg; in series [3] it was 97.6 µL/min/mg. The half-life at 2 μM amounted to 29.7 min in series [1], 30.7 min in series [2] and 14.2 min in series [3].
